Results from patent US8328934B2, “Crystal of GTP Cyclohydrolase Type IB” (priority 2007, dated 2012).
Like-named read-outs stand apart in the source and are kept apart here.

How the values were obtained:
Assay type in all cases: biochemical
B. subtilis GCYH-IB [1] = target: T1, B. subtilis GCYH-IB (Bacillus subtilis, UniProt P94398); details: for [Metal] (metal concentration for optimal activity): apoenzyme 2 μM, metal 0.1 μM-4 mM, 0.1 mM GTP; for relative activity (%): at the metal concentration for optimal activity, relative to Mn(II); for metal ion supports catalysis: apoenzyme assayed with specific metal ions over a broad concentration range
T1 construct: His6 (cleaved yes); made in house; host or cells: E. coli BL21 (DE3), pET-30 Xa/LIC plasmid pSAB-9-61
T1 sequence (P94398 1-304): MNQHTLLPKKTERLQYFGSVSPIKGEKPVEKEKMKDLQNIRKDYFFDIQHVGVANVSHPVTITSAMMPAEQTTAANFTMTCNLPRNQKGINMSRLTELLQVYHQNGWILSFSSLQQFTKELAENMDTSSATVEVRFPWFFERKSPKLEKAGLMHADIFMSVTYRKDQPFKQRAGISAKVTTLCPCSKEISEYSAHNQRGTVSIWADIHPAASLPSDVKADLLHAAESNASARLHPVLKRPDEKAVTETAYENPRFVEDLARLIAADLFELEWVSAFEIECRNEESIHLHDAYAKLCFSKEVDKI
Experimental: It is well established that GCYH-IA uses a bound Zn^2+ ion for activity. Nichol et al., 1985. To investigate the metal dependence of GCYH-IB, the purified recombinant B. subtilis enzyme was assayed for activity in the presence of a variety of metal ions or EDTA. […] To obtain unambiguous, quantitative data on the effect of various metal ions on catalytic activity, the enzyme was first demetallated by dialyzing against an EDTA/Chelex-containing buffer to generate the apoenzyme, which was then assayed in the presence of specific metal ions over a broad concentration range.
(§1) Enzyme Activity Assays: All chemicals were of analytical, metal-free grade from Sigma or Fisher. All solutions were prepared with Milli-Q water (18.2 MΩ) and treated with Chelex-100 (BioRad) to remove contaminating metals. Glassware were soaked in nitric acid (10%), then EDTA (5 mM) and rinsed liberally with Chelex-treated Milli-Q water before use. Activity assays were conducted as described previously (El Yacoubi et al, 2006) using either variable concentrations of metal or EDTA (5 mM), and 0.1 mM GTP.
(§2) Apoenzyme Preparation: Metal ions were removed from B. subtilis and N. gonorrhoeae GCYH-IB by incubating the purified, recombinant protein (0.5 ml) with EDTA (5 mM, 1 hr, 21° C.) followed by dialysis thrice against a 4-liter solution of Tris-HCl (50 mM, pH 8.0), KCl (50 mM), EDTA (5 mM) and a few grams of Chelex-100. The resulting apoenzyme was dialyzed thrice against 3 L of Tris-HCl (50 mM, pH 8.0), KCl (50 mM), and Chelex-100 to remove EDTA and passed through Chelex-100 resin (5 ml protein solution per 3 ml resin) prior to activity assays. Protein concentrations were determined spectrophotometrically.
Metal Activation Studies: The B. subtilis apoenzyme (2 μM) was incubated with varying concentrations (0.1 μM-4 mM) of metal chlorides (MnCl2, ZnCl2, MgCl2, NiCl2, CaCl2, CdCl2, CoCl2, CuCl2, CoCl3, FeCl3) or Fe(SO4) in standard buffer (100 mM HEPES, pH 8.0, 100 mM KCl) for 10 min at 37 C, and assayed for activity as described above. All assays involving Fe^2+ were conducted in an anaerobic chamber with degassed and N2-purged buffers.

B. subtilis GCYH-IB [2] = target: T1, B. subtilis GCYH-IB; assay: Effect of zinc on GCYH-IB activity in the presence of Mn(II); details: 600 μM Mn(II)
Experimental: (§3) The presence of both Zn^2+ and Mn^2+ in a reaction assay results in diminished activity (i.e. Zn^2+ is an inhibitor versus Mn^2+, Table 6). All of the metals bind the enzymes with low affinity, such that running the protein over a G-25 column or dialyzing against metal free buffer removed the protein bound metal.
as §1, §2

N. gonorrhoeae GCYH-IB = target: T2, N. gonorrhoeae GCYH-IB (Neisseria gonorrhoeae, UniProt Q5F9K6); assay: as above; details: 600 μM Mn(II)
T2 construct: His6 (cleaved yes); made in house; host or cells: E. coli BL21 (DE3), pET-30 Xa/LIC plasmid pSAB-8-142
T2 sequence (Q5F9K6 1-257): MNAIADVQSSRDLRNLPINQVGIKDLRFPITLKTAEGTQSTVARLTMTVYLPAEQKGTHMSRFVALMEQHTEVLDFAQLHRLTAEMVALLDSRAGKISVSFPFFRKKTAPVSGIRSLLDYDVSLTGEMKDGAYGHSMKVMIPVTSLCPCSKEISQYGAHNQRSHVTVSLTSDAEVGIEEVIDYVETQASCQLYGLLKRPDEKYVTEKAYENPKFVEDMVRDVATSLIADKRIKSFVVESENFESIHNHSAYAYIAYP
Experimental: as §3, §1, §2

SMILES	[Metal] (metal concentration for optimal activity) (B. subtilis GCYH-IB [1]) [µM]	relative activity (%) (B. subtilis GCYH-IB [1])	metal ion supports catalysis (B. subtilis GCYH-IB [1])	further results
[Fe+2] [Fe(II)]	1000	75 ± 8		
[Co+3] [Co(III)]		0		
[Mn+2] [Mn(II)]	500	100	catalysis is supported	
[Zn+2] [Zn(II)]	50	14 ± 1	catalysis is supported	optimum metal concentration required for catalysis, fold lower than for Mn^2+ (B. subtilis GCYH-IB [1]; Zn^2+ versus Mn^2+): roughly 10 fold; relative activity (%) (B. subtilis GCYH-IB [2]; 0.5 μM zinc): 84%; relative activity (%) (B. subtilis GCYH-IB [2]; 1 μM zinc): 41%; relative activity (%) (B. subtilis GCYH-IB [2]; 2 μM zinc): 34%; relative activity (%) (B. subtilis GCYH-IB [2]; 4 μM zinc): 35%; relative activity (%) (B. subtilis GCYH-IB [2]; 10 μM zinc): 35%; relative activity (%) (B. subtilis GCYH-IB [2]; 20 μM zinc): 26%; relative activity (%) (B. subtilis GCYH-IB [2]; 40 μM zinc): 23%; relative activity (%) (N. gonorrhoeae GCYH-IB; 0.5 μM zinc): 93%; relative activity (%) (N. gonorrhoeae GCYH-IB; 1 μM zinc): 68%; relative activity (%) (N. gonorrhoeae GCYH-IB; 2 μM zinc): 57%; relative activity (%) (N. gonorrhoeae GCYH-IB; 4 μM zinc): 47%; relative activity (%) (N. gonorrhoeae GCYH-IB; 10 μM zinc): 53%; relative activity (%) (N. gonorrhoeae GCYH-IB; 20 μM zinc): 45%; relative activity (%) (N. gonorrhoeae GCYH-IB; 40 μM zinc): 45%
O=C(O)CN(CCN(CC(=O)O)CC(=O)O)CC(=O)O [EDTA, reference compound]				activity in the presence of EDTA (B. subtilis GCYH-IB [1]): no activity was observed
[Cd+2] [Cd(II)]		0	fail to support activity	
[Cu+2] [Cu(II)]		0	fail to support activity	
[Co+2] [Co(II)]	100	24 ± 3		
[Mg+2] [Mg(II)]	100	43 ± 4	catalysis is supported	
[Ca+2] [Ca(II)]		0	fail to support activity	
[Fe+3] [Fe(III)]		0		
[Ni+2] [Ni(II)]	100	9.8 ± 1.3	catalysis is supported	
